Assay results published in ChEMBL document CHEMBL1201862, “PubChem BioAssay data set” (2004).
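Method: 48-hour compound exposure of cells in 96-well plates, five concentrations, linear interpolation of endpoints. GI50: concentration for 50% inhibition of growth.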 Active and inactive are the calls of the source. Cut-off read from the data, not from the text of the source: active = GI50 up to about 1.1 µM and inactive = higher.

Key:
Test in all cases: inhibition of tumour cell growth, NCI panel, 48 h
[1] = test system: NCI/ADR-RES
[2] = test system: LOX IMVI
[3] = test system: RXF 393
[4] = test system: M14
[5] = test system: SK-MEL-28
[6] = test system: HL-60
[7] = test system: OVCAR-8
[8] = test system: HCT-15
[9] = test system: NCI-H23
[10] = test system: NCI-H226
[11] = test system: OVCAR-4
[12] = test system: UACC-62
[13] = test system: UO-31
[14] = test system: MDA-MB-435
[15] = test system: SN12C
[16] = test system: EKVX
[17] = test system: HOP-62
[18] = test system: IGROV-1
[19] = test system: HOP-92
[20] = test system: HCC 2998

SMILES	GI50 [1]	GI50 [2]	GI50 [3]	GI50 [4]	GI50 [5]	GI50 [6]	GI50 [7]	GI50 [8] [µM]	GI50 [9]	GI50 [10]	GI50 [11]	GI50 [12]	GI50 [13]	GI50 [14]	GI50 [15]	GI50 [16]	GI50 [17]	GI50 [18]	GI50 [19]	GI50 [20]
CCN(CC)C(=O)N1CN(c2ccccc2)C2(CCN(CCCSc3ccc(F)cc3)CC2)C1=O	21.2 µM (inactive)	2.84 µM (inactive)	16.2 µM (inactive)	3.56 µM (inactive)	18.4 µM (inactive)	5.37 µM (inactive)	15.1 µM (inactive)	11	7.83 µM (inactive)	18.9 µM (inactive)	6.75 µM (inactive)	> 10 µM (inactive)	7.19 µM (inactive)	12.8 µM (inactive)	9.18 µM (inactive)	3.93 µM (inactive)	–	–	–	–
N#CC(c1cc(Cl)ncn1)c1nc2ccccc2s1 (configuration not stated)	3.29 µM (inactive)	4.72 µM (inactive)	16.1 µM (inactive)	17.1 µM (inactive)	19.3 µM (inactive)	–	3.85 µM (inactive)	3.74	5.04 µM (inactive)	25.8 µM (inactive)	6.46 µM (inactive)	–	16.6 µM (inactive)	18.1 µM (inactive)	2.61 µM (inactive)	20.9 µM (inactive)	14.1 µM (inactive)	6.92 µM (inactive)	3.57 µM (inactive)	–
O=C1c2ccccc2-c2c1c(-c1ccc(F)cc1)nc1ccc3ccccc3c21	> 100 µM (inactive)	> 100 µM (inactive)	> 100 µM (inactive)	> 100 µM (inactive)	> 100 µM (inactive)	–	> 100 µM (inactive)	> 100	> 100 µM (inactive)	> 100 µM (inactive)	> 100 µM (inactive)	> 100 µM (inactive)	> 100 µM (inactive)	> 100 µM (inactive)	> 100 µM (inactive)	> 100 µM (inactive)	> 100 µM (inactive)	–	–	> 100 µM (inactive)
O=[N+]([O-])c1ccc(C[S+]([O-])Cc2ccccc2)cc1 (configuration not stated)	> 100 µM (inactive)	> 100 µM (inactive)	> 100 µM (inactive)	> 100 µM (inactive)	> 100 µM (inactive)	> 100 µM (inactive)	> 100 µM (inactive)	> 100	> 100 µM (inactive)	> 100 µM (inactive)	> 100 µM (inactive)	> 100 µM (inactive)	> 100 µM (inactive)	> 100 µM (inactive)	> 100 µM (inactive)	> 100 µM (inactive)	> 100 µM (inactive)	> 100 µM (inactive)	> 100 µM (inactive)	–
CCOC(=O)/C(C(=O)c1ccc([N+](=O)[O-])cc1)=C(\NS(=O)(=O)c1cc(C)c(Cl)cc1[S-])[n+]1ccc(N(C)C)cc1	43.1 µM (inactive)	–	64.1 µM (inactive)	31.1 µM (inactive)	28.3 µM (inactive)	30.1 µM (inactive)	38.9 µM (inactive)	34	–	51.8 µM (inactive)	32.9 µM (inactive)	49.3 µM (inactive)	35.3 µM (inactive)	32.8 µM (inactive)	61.7 µM (inactive)	–	29.4 µM (inactive)	45.3 µM (inactive)	3.27 µM (inactive)	–
C[C@@H]1[C@H](C)N1CC(O)Cn1ccnc1[N+](=O)[O-] (some centres not stated)	> 100 µM (inactive)	> 100 µM (inactive)	> 100 µM (inactive)	> 100 µM (inactive)	> 100 µM (inactive)	> 100 µM (inactive)	> 100 µM (inactive)	> 100	> 100 µM (inactive)	> 100 µM (inactive)	> 100 µM (inactive)	> 100 µM (inactive)	> 100 µM (inactive)	> 100 µM (inactive)	> 100 µM (inactive)	> 100 µM (inactive)	> 100 µM (inactive)	> 100 µM (inactive)	–	> 100 µM (inactive)
COc1ccc(-c2oc3c(CC(=O)O)cccc3c(=O)c2OC)cc1	> 100 µM (inactive)	–	> 100 µM (inactive)	> 100 µM (inactive)	–	> 100 µM (inactive)	> 100 µM (inactive)	–	> 100 µM (inactive)	> 100 µM (inactive)	–	> 100 µM (inactive)	0.0809 µM (active)	> 100 µM (inactive)	> 100 µM (inactive)	> 100 µM (inactive)	> 100 µM (inactive)	> 100 µM (inactive)	–	> 100 µM (inactive)
O=C1Nc2ccc(Br)cc2/C1=N/NC(=S)Nc1ccc([N+](=O)[O-])cc1	2.01 µM (inactive)	8.81 µM (inactive)	11.8 µM (inactive)	–	11.1 µM (inactive)	1.75 µM (inactive)	6.37 µM (inactive)	2.69	2.55 µM (inactive)	15.9 µM (inactive)	6.11 µM (inactive)	5.5 µM (inactive)	–	6.41 µM (inactive)	8.02 µM (inactive)	–	11.4 µM (inactive)	5.08 µM (inactive)	9.77 µM (inactive)	–
O=C1/C(=C/c2ccc(Cl)cc2)CCCc2ccccc21	15.1 µM (inactive)	17.3 µM (inactive)	–	15.6 µM (inactive)	16.6 µM (inactive)	13.7 µM (inactive)	17.2 µM (inactive)	14	23.7 µM (inactive)	16.4 µM (inactive)	14.9 µM (inactive)	14.5 µM (inactive)	18.3 µM (inactive)	17.1 µM (inactive)	18.7 µM (inactive)	14.8 µM (inactive)	24.5 µM (inactive)	18.2 µM (inactive)	21.5 µM (inactive)	22.2 µM (inactive)
COc1cc2c(cc1OC)C(C)N(C)c1c-2c(OC(C)=O)cc2cc(OC)c(OC)cc12 (configuration not stated)	7.48 µM (inactive)	13.2 µM (inactive)	6.12 µM (inactive)	11.7 µM (inactive)	19.9 µM (inactive)	–	9.4 µM (inactive)	15	15.4 µM (inactive)	2.33 µM (inactive)	5.61 µM (inactive)	12.5 µM (inactive)	12.1 µM (inactive)	15.8 µM (inactive)	9.93 µM (inactive)	13.2 µM (inactive)	21.3 µM (inactive)	–	–	15.6 µM (inactive)
O=C(CCCN1CCC2(CC1)CC(=O)N(N1CCCCCC1)C2=O)c1ccccc1	> 100 µM (inactive)	> 100 µM (inactive)	> 100 µM (inactive)	> 100 µM (inactive)	> 100 µM (inactive)	> 100 µM (inactive)	> 100 µM (inactive)	> 100	> 100 µM (inactive)	> 100 µM (inactive)	> 100 µM (inactive)	> 100 µM (inactive)	> 100 µM (inactive)	> 100 µM (inactive)	> 100 µM (inactive)	> 100 µM (inactive)	> 100 µM (inactive)	> 100 µM (inactive)	> 100 µM (inactive)	–
CC1N[B@@-](C)(c2ccc(C(F)(F)F)cc2)OC1c1ccccc1 (some centres not stated)	> 100 µM (inactive)	98.2 µM (inactive)	–	> 100 µM (inactive)	> 100 µM (inactive)	12.7 µM (inactive)	> 100 µM (inactive)	49.1	> 100 µM (inactive)	> 100 µM (inactive)	> 100 µM (inactive)	> 100 µM (inactive)	34.7 µM (inactive)	> 100 µM (inactive)	> 100 µM (inactive)	41.4 µM (inactive)	> 100 µM (inactive)	> 100 µM (inactive)	20.4 µM (inactive)	> 100 µM (inactive)
Cc1cc(CCC(=O)NCCNc2c3ccccc3nc3ccccc23)cc(C)c1O[Si](C)(C)C(C)(C)C	1.81 µM (inactive)	0.148 µM (active)	1.5 µM (inactive)	1.66 µM (inactive)	1.92 µM (inactive)	1.52 µM (inactive)	1.47 µM (inactive)	0.282	1.93 µM (inactive)	17.1 µM (inactive)	1.32 µM (inactive)	14.5 µM (inactive)	1.83 µM (inactive)	0.3 µM (active)	15.5 µM (inactive)	1.6 µM (inactive)	1.51 µM (inactive)	1.76 µM (inactive)	1.53 µM (inactive)	–
Cc1ccc2nc(-c3ccc(-n4c(C)nc(=O)c(-c5ccc(F)cc5)c4C)cc3)sc2c1	15 µM (inactive)	22.7 µM (inactive)	9.75 µM (inactive)	12.7 µM (inactive)	20.8 µM (inactive)	11.4 µM (inactive)	17.5 µM (inactive)	12.4	16.3 µM (inactive)	17.5 µM (inactive)	17.6 µM (inactive)	–	15 µM (inactive)	15.1 µM (inactive)	15 µM (inactive)	13.5 µM (inactive)	22 µM (inactive)	14.2 µM (inactive)	17.6 µM (inactive)	–
CC(=O)Nc1nc(O)c2nc(C=O)cnc2n1	> 100 µM (inactive)	> 100 µM (inactive)	> 100 µM (inactive)	> 100 µM (inactive)	> 100 µM (inactive)	> 100 µM (inactive)	> 100 µM (inactive)	> 100	> 100 µM (inactive)	> 100 µM (inactive)	> 100 µM (inactive)	> 100 µM (inactive)	> 100 µM (inactive)	> 100 µM (inactive)	> 100 µM (inactive)	> 100 µM (inactive)	> 100 µM (inactive)	> 100 µM (inactive)	> 100 µM (inactive)	–
CC(=S)NC1C(Oc2ccc3c(C)cc(=O)oc3c2)OC(CO)C(O)C1O (configuration not stated)	> 100 µM (inactive)	> 100 µM (inactive)	> 100 µM (inactive)	–	> 100 µM (inactive)	> 100 µM (inactive)	> 100 µM (inactive)	> 100	–	> 100 µM (inactive)	> 100 µM (inactive)	> 100 µM (inactive)	> 100 µM (inactive)	> 100 µM (inactive)	> 100 µM (inactive)	> 100 µM (inactive)	> 100 µM (inactive)	> 100 µM (inactive)	> 100 µM (inactive)	–
